In ChEMBL document CHEMBL1131985, “9-[(2'S,3'S)-3'-formyl-2',3'-dihydroxypropyl]adenine: a facile affinity-labeling probe of human S-adenosyl-L-homocysteine hydrolase” (Bioorg Med Chem Lett, 1999):

Key:
Adenosylhomocysteinase [1] = target: T1, Adenosylhomocysteinase (Homo sapiens, UniProt P23526); assay: Concentration with maximum apparent affinity (Kapp) for S-adenosyl-l-homocysteine (SAH) hydrolase was reported
Target sequence in this assay (P23526 2-432 limits assumed): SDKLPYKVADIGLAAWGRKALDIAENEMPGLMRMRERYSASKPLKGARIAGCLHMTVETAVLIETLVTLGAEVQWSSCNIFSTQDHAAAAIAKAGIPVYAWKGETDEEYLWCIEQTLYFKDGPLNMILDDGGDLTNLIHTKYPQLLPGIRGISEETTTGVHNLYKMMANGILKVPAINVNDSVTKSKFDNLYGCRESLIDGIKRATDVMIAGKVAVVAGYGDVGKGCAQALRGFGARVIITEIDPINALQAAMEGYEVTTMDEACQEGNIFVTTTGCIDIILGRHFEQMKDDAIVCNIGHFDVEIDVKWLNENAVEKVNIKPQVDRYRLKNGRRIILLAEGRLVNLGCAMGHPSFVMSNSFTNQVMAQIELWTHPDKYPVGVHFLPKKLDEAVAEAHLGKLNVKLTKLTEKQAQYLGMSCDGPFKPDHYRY

Adenosylhomocysteinase [2] = target: T1, Adenosylhomocysteinase; assay: Affinity and reactivity of an affinity-labeling reagent, was assessed from the inhibitory constant value
Target sequence in this assay (P23526 whole entry): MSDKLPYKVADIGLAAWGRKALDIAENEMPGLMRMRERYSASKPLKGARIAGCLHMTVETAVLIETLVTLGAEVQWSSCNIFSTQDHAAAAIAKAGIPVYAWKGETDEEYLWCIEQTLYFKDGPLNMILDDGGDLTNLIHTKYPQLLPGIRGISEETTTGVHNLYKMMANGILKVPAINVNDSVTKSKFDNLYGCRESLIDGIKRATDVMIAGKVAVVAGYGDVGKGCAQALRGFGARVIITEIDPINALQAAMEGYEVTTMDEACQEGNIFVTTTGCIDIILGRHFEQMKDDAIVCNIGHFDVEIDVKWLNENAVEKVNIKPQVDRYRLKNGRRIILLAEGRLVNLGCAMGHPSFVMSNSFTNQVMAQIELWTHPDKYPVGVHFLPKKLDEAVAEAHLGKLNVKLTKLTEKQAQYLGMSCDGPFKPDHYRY

Adenosylhomocysteinase [3] = target: T1, Adenosylhomocysteinase; assay: Affinity and reactivity of an affinity-labeling reagent, was assessed from the inactivation constant value
Target sequence in this assay (P23526 2-432 limits assumed): as the sequence (P23526 2-432 limits assumed) above

K app (Adenosylhomocysteinase [1]): 100 µM
Ki (Adenosylhomocysteinase [2]): 8.8 µM
K inact (Adenosylhomocysteinase [3]): 0.09 min⁻¹
SMILES: Nc1ncnc2c1ncn2C[C@H](O)[C@H](O)C=O
